According to patent US12545685B2 (Daiichi Sankyo Company, Limited, priority 2011, dated 2026):

biological target: T1, Mdm2/p53 binding (GST-Mdm2 / His-p53) (Homo sapiens, UniProt Q00987, L33E); assay: Mdm2/p53 binding assay (HTRF, His-p53 and GST-Mdm2); settings: His-p53 (aa 1-132) and GST-Mdm2 (aa 25-108, L33E) 6.25 nM each; 25°C, 1 hour; values given as ranges
T1 construct: Mdm2 partial protein having Mdm2 amino acids at positions 25 to 108
Procedure: A protein dilution containing 6.25 nM each of His-p53 (fusion protein of a p53 partial protein having p53 amino acids at positions 1 to 132, with a histidine protein) and GST-Mdm2 (fusion protein of an Mdm2 partial protein having Mdm2 amino acids at positions 25 to 108 with leucine residue 33 substituted by glutamic acid, with glutathione transferase) proteins was prepared using a protein buffer solution (20 mM HEPES pH 7.4, 150 mM NaCl, 0.1% BSA). This protein dilution was added in an amount of 8 μl/well to a 384-well plate (384-well low volume NBC, Corning Inc., catalog No: 3676).
Next, a test compound was diluted with DMSO to produce a protein buffer solution containing 10% dilution, and this buffer solution was added in an amount of 4 μl/well to the plate.
Subsequently, a solution containing an XL665-labeled anti-His antibody (HTRF monoclonal anti-6HIS antibody labeled with XL665 (catalog No: 61HISXLB), Schering/Cisbio Bioassays) and a europium (Eu)-labeled anti-GST antibody (HTRF monoclonal anti-GST antibody labeled with europium cryptate, Schering/Cisbio Bioassays, catalog No: 61GSTKLB) at concentrations of 2.5 μg/ml and 0.325 μg/ml, respectively, was prepared using an antibody diluting buffer solution (20 mM HEPES pH 7.4, 150 mM NaCl, 0.1% BSA, 0.5 M KF). These dilutions were added in an amount of 8 μl/well (total reaction solution volume: 20 μl/well). Then the plate was incubated at 25° ° C. for 1 hour.
Time-resolved fluorescence at 620 and 665 nm was measured at an excitation wavelength of 320 nm using a plate reader (ARVOsx, PerkinElmer Co., Ltd. or PHERAstar, BMG LABTECH). Ratio (R) was calculated using the measured values (RFU 620 nm and RFU 665 nm) according to the following formula: […]
BI: measured value at 665 nm of reaction solution (only each buffer solution) nonsupplemented with each protein, the compound, and the antibodies
A and D: each measured value at 665 nm and 620 nm of reaction solution supplemented with only Eu-labeled anti-GST antibody solution
The R value calculated from the well supplemented with His-p53, GST-Mdm2, the test compound, and each antibody was defined as R (sample). The R value calculated from the well supplemented with His-p53, GST-Mdm2, and each antibody but without the test compound was defined as R (control). The R value calculated from the well supplemented with GST-Mdm2 the test compound, and each antibody but without His-p53 was defined as R (background). T/C was calculated from the formula shown below. An IC50 value for Mdm2/p53 binding was calculated by sigmoid fitting.

T1 sequence (Q00987 25-108 L33E): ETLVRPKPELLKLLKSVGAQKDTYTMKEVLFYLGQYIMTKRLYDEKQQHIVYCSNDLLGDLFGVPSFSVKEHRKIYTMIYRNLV

IC50	SMILES
0.001 to 0.05 µM	CCNC(=O)[C@H]1C[C@H](NC(=O)[C@@H]2NC3(CCC(C)(C)CC3)[C@@]3(C(=O)Nc4cc(Cl)ccc43)[C@H]2c2ccnc(Cl)c2F)C1 [Example 118, (3′R,4′S,5′R)-6″-chloro-4′-(2-chloro-3-fluoropyridin-4-yl)-N-[trans-3-(ethylcarbamoyl)cyclobutyl]-4,4-dimethyl-2″-oxo-1″,2″-dihydrodispiro[cyclohexane-1,2′-pyrrolidine-3′,3″-indole]-5′-carboxamide]
0.05 to 0.1 µM	O=C(N[C@H]1CC[C@H](c2nnco2)CC1)[C@@H]1NC2(CC(CF)(CF)C2)[C@@]2(C(=O)Nc3cc(Cl)ccc32)[C@H]1c1cccc(Cl)c1F [Example 123, (3′R, 4″S,5′R)-6′-chloro-4′-(3-chloro-2-fluorophenyl)-3,3-bis(fluoromethyl)-N-[trans-4-(1,3,4-oxadiazol-2-yl)cyclohexyl]-2″-oxo-1″,2″-dihydrodispiro[cyclobutane-1,2′-pyrrolidine-3′,3″-indole]-5′-carboxamide]
0.05 to 0.1 µM	O=C(N[C@@H]1CC[C@@H](CO)OC1)[C@@H]1NC2(CC(CF)(CF)C2)[C@@]2(C(=O)Nc3cc(Cl)c(F)cc32)[C@H]1c1ccnc(Cl)c1F [Example 163, (3′R, 4′S,5′R)-6″-chloro-4′-(2-chloro-3-fluoropyridin-4-yl)-5″-fluoro-3,3-bis(fluoromethyl)-N-[(3R,6S)-6-(hydroxymethyl)tetrahydro-2H-pyran-3-yl]-2″-oxo-1″,2″-dihydrodispiro[cyclobutane-1,2′-pyrrolidine-3′,3″-indole]-5′-carboxamide]
0.05 to 0.1 µM	COC[C@@H]1CC[C@@H](NC(=O)[C@@H]2NC3(CC(CF)(CF)C3)[C@@]3(C(=O)Nc4cc(Cl)ccc43)[C@H]2c2cccc(Cl)c2F)CO1 [Example 143, (3′R, 4′S,5′R)-6″-chloro-A′-(3-chloro-2-fluorophenyl)-3,3-bis(fluoromethyl)-N-[(3R,6S)-6-(methoxymethyl)tetrahydro-2H-pyran-3-yl]-2″-oxo-1″,2″-dihydrodispiro[cyclobutane-1,2′-pyrrolidine-3′,3″-indole]-5′-carboxamide]
0.05 to 0.1 µM	COC(=O)c1cc(Cl)cc([C@H]2[C@H](C(=O)N[C@@H]3CC[C@@H](CO)OC3)NC3(CCC(C)(C)CC3)[C@@]23C(=O)Nc2cc(Cl)ccc23)c1 [Example 22, 1,5-Anhydro-2-[({(3′R, 4′R, 5′R)-6″-chloro-4′-[3-chloro-5-(methoxycarbonyl)phenyl]-4,4-dimethyl-2″-oxo-1″,2″-dihydrodispiro[cyclohexane-1,2′-pyrrolidine-3′,3″-indole]-5′-yl}carbonyl)amino]-2,3,4-trideoxy-D-erythro-hexitol]
0.001 to 0.05 µM	CC1(C)CCC2(CC1)N[C@@H](C(=O)N[C@H]1CC[C@H](c3noc(=O)[nH]3)CC1)[C@H](c1cccc(Cl)c1F)[C@]21C(=O)Nc2nc(Cl)ccc21 (relative stereo) [Example 49, (3′R, 4′S,5′R)-6″-chloro-4′-(3-chloro-2-fluorophenyl)-4,4-dimethyl-2″-oxo-N-[trans-4-(5-oxo-4,5-dihydro-1,2,4-oxadiazol-3-yl)cyclohexyl]-1″,2″-dihydrodispiro[cyclohexane-1,2′-pyrrolidine-3′,3″-pyrrolo[2,3-b]pyridine]-5′-carboxamide]
0.001 to 0.05 µM	CC1(C)CCC2(CC1)N[C@@H](C(=O)N[C@@H]1CC[C@@H](C(=O)N3CCC3)OC1)[C@H](c1ccnc(Cl)c1F)[C@]21C(=O)Nc2cc(Cl)ccc21 [Example 106, (3′R, 4+S,5′R)—N-[(3R,6S)-6-(azetidin-1-ylcarbonyl)tetrahydro-2H-pyran-3-yl]-6″-chloro-4′-(2-chloro-3-fluoropyridin-4-yl)-4,4-dimethyl-2″-oxo-1″,2″-dihydrodispiro[cyclohexane-1,2′-pyrrolidine-3′,3″-indole]-5H-carboxamide]
0.001 to 0.05 µM	CN(C)C(=O)C[C@@H]1CC[C@@H](NC(=O)[C@@H]2NC3(CCC(C)(C)CC3)[C@@]3(C(=O)Nc4cc(Cl)ccc43)[C@H]2c2ccnc(Cl)c2F)CO1 [Example 152, (3′R, 4′S,5′R)-6″-chloro-4′-(2-chloro-3-fluoropyridin-4-yl)-N-{(3R,6S)-6-[2-(dimethylamino)-2-oxoethyl]tetrahydro-2H-pyran-3-yl}-4,4-dimethyl-2″-oxo-1″,2″-dihydrodispiro[cyclohexane-1,2′-pyrrolidine-3′,3″-indole]-5′-carboxamide]
0.001 to 0.05 µM	CC1(C)CCC2(CC1)N[C@@H](C(=O)N[C@@H]1CC[C@@H](CO)OC1)[C@H](c1cncc(Cl)c1)[C@]21C(=O)Nc2cc(Cl)ccc21 [Example 92, (3′R, 4′R, 5′R)-6″-chloro-4′-(5-chloropyridin-3-yl)-N-[(3R,6S)-6-(hydroxymethyl)tetrahydro-2H-pyran-3-yl]-4,4-dimethyl-2″-oxo-1″,2″-dihydrodispiro[cyclohexane-1,2′-pyrrolidine-3′,3″-indole]-5′-carboxamide]
0.001 to 0.05 µM	CNC(=O)C[C@@H]1CC[C@@H](NC(=O)[C@@H]2NC3(CC(CF)(CF)C3)[C@@]3(C(=O)Nc4cc(Cl)ccc43)[C@H]2c2cccc(Cl)c2F)CO1 [Example 151, (3′R, 4′S,5′R)-6″-chloro-4′-(3-chloro-2-fluorophenyl)-3,3-bis(fluoromethyl)-N-{(3R,6S)-6-[2-(methylamino)-2-oxoethyl]tetrahydro-2H-pyran-3-yl}=2″-oxo-1″,2″-dihydrodispiro[cyclobutane-1,2′-pyrrolidine-3′,3′-indole]-5′-carboxamide]
0.001 to 0.05 µM	NC(=O)[C@@H]1CC[C@@H](NC(=O)[C@@H]2NC3(CC(CF)(CF)C3)[C@@]3(C(=O)Nc4cc(Cl)ccc43)[C@H]2c2ccnc(Cl)c2F)CO1 [Example 158, (3′R, 4′S,5′R)—N-[(3R,6S)-6-carbamoyltetrahydro-2H-pyran-3-yl]-6″-chloro-4′-(2-chloro-3-fluoropyridin-4-yl)-3,3-bis(fluoromethyl)-2″-oxo-1″,2″-dihydrodispiro[cyclobutane-1,2′-pyrrolidine-3′,3″-indole]-5′-carboxamide]
0.001 to 0.05 µM	CC1(C)CCC2(CC1)N[C@@H](C(=O)N[C@H]1CC[C@H](N3CC(O)C3)CC1)[C@H](c1cccc(Cl)c1F)[C@]21C(=O)Nc2cc(Cl)ccc21 (relative stereo) [Example 12, (3′R, 4′S,5′R)-6″-chloro-4′-(3-chloro-2-fluorophenyl)-N-[trans-4-(3-hydroxyazetidin-1-yl)cyclohexyl]-4,4-dimethyl-2″-oxo-1″,2″-dihydrodispiro[cyclohexane-1,2′-pyrrolidine-3′,3″-indole]-5′-carboxamide]
0.001 to 0.05 µM	NC(=O)[C@H]1C[C@H](NC(=O)[C@@H]2NC3(CC(CF)(CF)C3)[C@@]3(C(=O)Nc4cc(Cl)ccc43)[C@H]2c2cccc(Cl)c2F)C1 [Example 134, (3′R, 4′S,5′R)—N-(trans-3-carbamoylcyclobutyl)-6″-chloro-4′-(3-chloro-2-fluorophenyl)-3,3-bis(fluoromethyl)-2″-oxo-1″,2″-dihydrodispiro[cyclobutane-1,2′-pyrrolidine-3′,3″-indole]-5′-carboxamide]
0.001 to 0.05 µM	CC1(C)CCC2(CC1)N[C@@H](C(=O)N[C@@H]1CC[C@@H](c3n[nH]c(=O)o3)OC1)[C@H](c1ccnc(Cl)c1F)[C@]21C(=O)Nc2nc(Cl)ccc21 [Example 65, (3′R, 4′S,5′R)-6″-chloro-4′-(2-chloro-3-fluoropyridin-4-yl)-4,4-dimethyl-2″-oxo-N-[(3R,6S)-6-(5-oxo-4,5-dihydro-1,3,4-oxadiazol-2-yl)tetrahydro-2H-pyran-3-yl]-1″,2″-dihydrodispiro[cyclohexane-1,2′-pyrrolidine-3′,3″-pyrrolo[2,3-b]pyridine]-5′-carboxamide]
0.1 to 0.5 µM	CN(C)C(=O)[C@H]1CC[C@H](NC(=O)[C@@H]2NC3(CC(CF)(CF)C3)[C@@]3(C(=O)Nc4cc(Cl)ccc43)[C@H]2c2cc(F)cc(Cl)c2)CC1 (relative stereo) [Example 168, (3′R, 4′R, 5′R)-6″-chloro-4′-(3-chloro-5-fluorophenyl)-N-[trans-4-(dimethylcarbamoyl)cyclohexyl]-3,3-bis(fluoromethyl)-2″-oxo-1″,2″-dihydrodispiro[cyclobutane-1,2′-pyrrolidine-3′,3″-indole]-5′-carboxamide]
